According to patent publication US7847063B2 (Sanwa Kagaku Kenkyusho Co., Ltd., priority 2003, dated 2010):
Ends that are not written are not given here.

Legend:
[1] = tested on: Langerhans islets; assay: Insulin secretion-promoting activity in isolated Langerhans islets; format: cell-based, ICR mouse; details: 16.7 mM glucose, 37° C. 30 min, FIG. 13
From the text: Langerhans islets were extracted from ICR mouse pancreas with collagenase, 2 to 3 Langerhans islets were placed per well of 24-well plates, and cultured overnight.

[2] = molecular target: T1, trypsin (Sus scrofa, UniProt P00761); details: pH 7.8
T1 sequence (P00761 9-231): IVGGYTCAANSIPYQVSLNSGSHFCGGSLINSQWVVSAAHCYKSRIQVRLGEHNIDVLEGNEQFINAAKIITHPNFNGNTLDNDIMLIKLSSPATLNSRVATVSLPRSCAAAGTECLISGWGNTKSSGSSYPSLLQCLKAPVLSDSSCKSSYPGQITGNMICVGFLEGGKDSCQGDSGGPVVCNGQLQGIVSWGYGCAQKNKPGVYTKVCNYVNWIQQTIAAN
Method: 5 μl of 500 μg/ml trypsin solution (Promega: Cat. No. V5113) was added to 100 μl of this solution, and reacted at 37° C. for 1 hour. The reaction was stopped by adding 1200 μl of 71.5% ethanol (final 65%). The supernatant was collected by centrifugation at 15,000 rpm at 4° C. for 5 min, and evaporation was carried out. The dried solids were dissolved in distilled water and used for measuring activity.
The reaction was stopped by adding 1200 μl of 71.5% ethanol (final 65%). The supernatant was collected by centrifugation of 15,000 rpm at 4° C. for 5 min and evaporation was carried out. The dried solids were dissolved in distilled water and used for measuring the activity.

[3] = molecular target: T1, trypsin
Method: To this diluent, 6 μl of 83 μg/ml trypsin solution (Promega: Cat. No. V5113) was added. The resultant was reacted at 37° C. for 1, 2, 4, 6 or 20 hours, and then the reaction was stopped by adding 1200 μl of 71.5% ethanol (final 65%). The supernatant was collected by centrifugation at 15,000 rpm at 4° C. for 5 min and evaporation was carried out. The dried solids were dissolved in distilled water and the activity was measured.

[4] = molecular target: DPP-IV (Sus scrofa, UniProt P22411)
Sequence of DPP-IV (P22411 whole entry): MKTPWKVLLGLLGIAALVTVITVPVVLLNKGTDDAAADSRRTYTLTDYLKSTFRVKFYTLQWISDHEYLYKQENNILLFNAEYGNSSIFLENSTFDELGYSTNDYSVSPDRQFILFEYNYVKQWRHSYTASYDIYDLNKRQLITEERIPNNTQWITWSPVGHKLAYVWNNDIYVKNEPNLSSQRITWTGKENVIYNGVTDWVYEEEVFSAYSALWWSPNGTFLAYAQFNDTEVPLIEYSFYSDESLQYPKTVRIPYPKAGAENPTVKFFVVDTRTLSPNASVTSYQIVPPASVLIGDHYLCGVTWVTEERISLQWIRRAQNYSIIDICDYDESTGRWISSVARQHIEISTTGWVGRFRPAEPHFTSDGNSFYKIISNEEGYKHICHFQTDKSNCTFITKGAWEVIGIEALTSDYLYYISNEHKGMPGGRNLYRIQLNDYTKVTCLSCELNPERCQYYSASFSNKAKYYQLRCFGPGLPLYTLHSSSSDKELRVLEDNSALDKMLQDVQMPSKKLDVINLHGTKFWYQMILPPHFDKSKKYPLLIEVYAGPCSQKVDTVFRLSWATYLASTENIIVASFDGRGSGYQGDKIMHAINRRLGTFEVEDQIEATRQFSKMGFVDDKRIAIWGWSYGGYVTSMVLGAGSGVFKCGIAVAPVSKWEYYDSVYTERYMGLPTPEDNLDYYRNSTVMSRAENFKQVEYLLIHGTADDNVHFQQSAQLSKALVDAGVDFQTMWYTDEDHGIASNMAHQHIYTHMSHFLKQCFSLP

[5] = molecular target: T2, human GLP-1 receptor (Homo sapiens, UniProt P43220); assay: Cyclic AMP production activity in CHO-K1 cells expressing human GLP-1 receptors; format: cell-based; details: compared with native GLP-1; 37° C. 30 min; FIG. 7
T2 construct: expressed in transfected cells; host or cells: Chinese hamster ovary CHO-K1 cells
T2 sequence (P43220 24-463): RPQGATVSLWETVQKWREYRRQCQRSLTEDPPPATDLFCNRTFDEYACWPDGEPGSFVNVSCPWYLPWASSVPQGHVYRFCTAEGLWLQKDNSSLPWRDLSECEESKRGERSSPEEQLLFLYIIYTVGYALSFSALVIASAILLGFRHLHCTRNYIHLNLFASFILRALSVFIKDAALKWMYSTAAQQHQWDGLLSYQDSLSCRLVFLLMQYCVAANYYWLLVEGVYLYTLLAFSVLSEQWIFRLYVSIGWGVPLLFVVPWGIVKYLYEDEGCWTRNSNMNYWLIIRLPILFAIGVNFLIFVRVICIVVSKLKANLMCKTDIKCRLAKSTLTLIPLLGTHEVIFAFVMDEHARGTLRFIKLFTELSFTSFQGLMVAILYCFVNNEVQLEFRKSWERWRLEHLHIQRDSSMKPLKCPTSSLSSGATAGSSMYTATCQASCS
Method: 10 μl of 5N hydrochloric acid was added to the buffer to stop the incubation.

[6] = Hypoglycemic effect in oral glucose tolerance test (OGTT) by subcutaneous administration; format: in vivo; details: mice fasted overnight, 1 g/kg glucose orally, peptide 5, 20 μg/kg dorsal subcutaneously; FIG. 14
Method: Physiological saline was administered to the control group. Before loading glucose and 20, 60, 120 min after loading, blood was collected chronologically from subocular venous plexus, to measure blood glucose level. […] Moreover, the action continued until 120 min after the administration (FIG. 15).

Row | Substance | insulin secretion-promoting activity [1] | variation in activity by trypsin treatment (trypsin resistance) [2] | cyclic AMP production activity versus trypsin treatment time [3] | DPP-IV resistance [4] | cyclic AMP production activity [5] | activity before and after trypsin treatment (trypsin resistance) [2] | insulin secretion-promoting activity at high concentration ([1]; high concentration) | peak value of blood glucose increase / hypoglycemic action [6]
1 | [Ser^8, Gln^26, Asp^34]-GLP-1 (7-36) | Amount-dependent insulin secretion-promoting activity | no variation in activity by trypsin treatment | the activity was maintained regardless of the trypsin treatment time | obvious DPP-IV resistance |  |  |  | 
2 | HAEGTFTSDVSSYLEGQAAQEFIAWLVNGR-NH2 [[Gln^26, Asn^34]-GLP-1 (7-36 amide)] |  |  |  |  | same level of cyclic AMP production activity as native GLP-1 | no difference of activity before and after trypsin treatment |  | 
3 | HSEGTFTSDVSSYLEGQAAQEFIAWLVNGR-OH [[Ser^8, Gln^26, Asn^34]-GLP-1 (7-36), [Ser^8, Gln^26, Asn^34]-GLP-1 (7-36)] | Amount-dependent insulin secretion-promoting activity | no variation in activity by trypsin treatment |  | obvious DPP-IV resistance |  |  | strong insulin secretion-promoting activity | strong action
4 | GLP-1 (7-36 amide) (HAEGTFTSDVSSYLEGQAAKEFIAWLVKGR-NH2) [native GLP-1, made by solid phase synthesis, reference compound] | Amount-dependent insulin secretion-promoting activity |  |  |  |  |  |  | 
